Measurements from US6737383B1, “Herbicidal oxadiazolidines” (priority 1999, dated 2004).

Experiments:
bedstraw = test: Test B pre/postemergence bedstraw; type: in vivo, Galium aparine
Method in brief: (§1)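 Test chemicals in a non-phytotoxic solvent mixture with surfactant were sprayed preemergence onto planted seeds and postemergence onto plants 2 to 18 cm tall (1- to 4-leaf stage). After twelve to sixteen days in a greenhouse, injury was visually rated against untreated controls from 0 (no effect) to 10 (complete control).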

blackgrass = test: Test B pre/postemergence blackgrass; type: in vivo, Alopecurus myosuroides
Method in brief: as §1

surinam grass = test: Test B pre/postemergence surinam grass; type: in vivo, Brachiaria decumbens
Method in brief: as §1

cocklebur = test: Test B pre/postemergence cocklebur; type: in vivo, Xanthium strumarium
Method in brief: as §1

crabgrass = test: Test B pre/postemergence crabgrass; type: in vivo, Digitaria sanguinalis
Method in brief: as §1

giant foxtail = test: Test B pre/postemergence giant foxtail; type: in vivo, Setaria faberii
Method in brief: as §1

morningglory = test: Test B pre/postemergence morningglory; type: in vivo, Ipomoea hederacea
Method in brief: as §1

pigweed = test: Test B pre/postemergence pigweed; type: in vivo, Amaranthus retroflexus
Method in brief: as §1

soybean = test: Test B pre/postemergence soybean; type: in vivo, Glycine max
Method in brief: as §1

velvetleaf = test: Test B pre/postemergence velvetleaf; type: in vivo, Abutilon theophrasti
Method in brief: as §1

wheat = test: Test B pre/postemergence wheat; type: in vivo, Triticum aestivum
Method in brief: as §1

wild oat = test: Test B pre/postemergence wild oat; type: in vivo, Avena fatua
Method in brief: as §1

purple nutsedge = test: Test B pre/postemergence purple nutsedge; type: in vivo, Cyperus rotundus
Method in brief: as §1

rice = test: Test B flood test rice; type: in vivo, Oryza sativa
Method in brief: (§2)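 Plants were grown to the 2-leaf stage before treatment with test chemical, then held in a greenhouse for twelve to sixteen days. Injury was visually rated against untreated controls on a 0–10 scale, where 0 is no effect and 10 is complete control.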

smallflower flatsedge = test: Test B flood test smallflower flatsedge; type: in vivo, Cyperus difformis
Method in brief: as §2

bamyardgrass = test: Test B flood test barnyardgrass; type: in vivo, Echinochloa crus-galli
Method in brief: as §2

[1] = Postemergence, Rate 125 g/ha, scale of 0 to 10 where 0 is no effect and 10 is complete control
[2] = Preemergence, Rate 62 g/ha, scale 0 to 10 (0 no effect, 10 complete control)
[3] = Preemergence, Rate 125 g/ha, 0 is no effect, 10 is complete control
[4] = Preemergence, Rate 250 g/ha, scale 0 to 10, 0 is no effect, 10 is complete control
[5] = Preemergence, Rate 500 g/ha, scale 0 to 10 (0 no effect, 10 complete control)
[6] = Rate 62 g/ha, Postemergence, scale of 0 to 10 where 0 is no effect and 10 is complete control
[7] = Rate 250 g/ha, Postemergence, scale 0 to 10, 0 is no effect, 10 is complete control
[8] = Rate 500 g/ha, Postemergence, scale 0 to 10
[9] = Postemergence (flood test species), Rate 125 g/ha, scale of 0 to 10 where 0 is no effect and 10 is complete control
[10] = Rate 62 g/ha, Postemergence section, flood test species, scale of 0 to 10 where 0 is no effect and 10 is complete control
[11] = Rate 250 g/ha, Postemergence (flood test), scale 0 to 10, 0 is no effect, 10 is complete control
[12] = Rate 500 g/ha, listed under Postemergence (flood test species), scale 0 to 10

CN(C(=O)n1oc(=O)n(Cc2ccccc2)c1=O)c1ccccc1 [Compound 153]
0: Bedstraw plant response rating (bedstraw; [1]) | Bedstraw plant response rating (bedstraw; [2]) | Bedstraw plant response rating (0 to 10 scale) (bedstraw; [3]) | Bedstraw plant response rating (bedstraw; [4]) | Bedstraw plant response rating (bedstraw; [5]) | Bedstraw plant response rating (bedstraw; [6]) | Plant response rating, Bedstraw (bedstraw; [7]) | Bedstraw plant response rating (bedstraw; Rate 500 g/ha, Postemergence, scale 0 to 10, 0 no effect, 10 complete control) | Blackgrass plant response rating (blackgrass; [1]) | Blackgrass plant response rating (blackgrass; [2]) | Blackgrass plant response rating (0 to 10 scale) (blackgrass; [3]) | Blackgrass plant response rating (blackgrass; [4]) | Blackgrass plant response rating (blackgrass; [5]) | Blackgrass plant response rating (blackgrass; [6]) | Plant response rating, Blackgrass (blackgrass; [7]) | Blackgrass plant response rating (blackgrass; [8]) | B. signalgrass plant response rating (surinam grass; [1]) | B. signalgrass plant response rating (surinam grass; [2]) | B. signalgrass plant response rating (0 to 10 scale) (surinam grass; [3]) | B. signalgrass plant response rating (surinam grass; [4]) | B. signalgrass plant response rating (surinam grass; [5]) | B. signalgrass plant response rating (surinam grass; [6]) | Plant response rating, B. signalgrass (surinam grass; [7]) | B. signalgrass plant response rating (surinam grass; Rate 500 g/ha, Postemergence, scale of 0 to 10 where 0 is no effect and 10 is complete control) | Cocklebur plant response rating (cocklebur; [1]) | Cocklebur plant response rating (cocklebur; [2]) | Cocklebur plant response rating (0 to 10 scale) (cocklebur; [3]) | Cocklebur plant response rating (cocklebur; [4]) | Cocklebur plant response rating (cocklebur; [5]) | Cocklebur plant response rating (cocklebur; [6]) | Plant response rating, Cocklebur (cocklebur; [7]) | Cocklebur plant response rating (cocklebur; [8]) | Crabgrass plant response rating (crabgrass; [1]) | Crabgrass plant response rating (crabgrass; [2]) | Crabgrass plant response rating (0 to 10 scale) (crabgrass; [3]) | Crabgrass plant response rating (crabgrass; [4]) | Crabgrass plant response rating (crabgrass; [5]) | Crabgrass plant response rating (crabgrass; [6]) | Plant response rating, Crabgrass (crabgrass; [7]) | Crabgrass plant response rating (crabgrass; [8]) | Giant foxtail plant response rating (giant foxtail; [1]) | Giant foxtail plant response rating (giant foxtail; [2]) | Giant foxtail plant response rating (0 to 10 scale) (giant foxtail; [3]) | Giant foxtail plant response rating (giant foxtail; [4]) | Giant foxtail plant response rating (giant foxtail; [5]) | Giant foxtail plant response rating (giant foxtail; [6]) | Plant response rating, Giant foxtail (giant foxtail; [7]) | Giant foxtail plant response rating (giant foxtail; [8]) | Morningglory plant response rating (morningglory; [1]) | Morningglory plant response rating (morningglory; [2]) | Morningglory plant response rating (0 to 10 scale) (morningglory; [3]) | Morningglory plant response rating (morningglory; [4]) | Morningglory plant response rating (morningglory; [5]) | Morningglory plant response rating (morningglory; [6]) | Plant response rating, Morningglory (morningglory; [7]) | Morningglory plant response rating (morningglory; [8]) | Redroot pigweed plant response rating (pigweed; [1]) | Redroot pigweed plant response rating (pigweed; [2]) | Redroot pigweed plant response rating (0 to 10 scale) (pigweed; [3]) | Redroot pigweed plant response rating (pigweed; [4]) | Redroot pigweed plant response rating (pigweed; [5]) | Redroot pigweed plant response rating (pigweed; [6]) | Plant response rating, Redroot pigweed (pigweed; [7]) | Redroot pigweed plant response rating (pigweed; [8]) | Soybean plant response rating (soybean; [1]) | Soybean plant response rating (soybean; [2]) | Soybean plant response rating (0 to 10 scale) (soybean; [3]) | Soybean plant response rating (soybean; [4]) | Soybean plant response rating (soybean; [5]) | Soybean plant response rating (soybean; [6]) | Plant response rating, Soybean (soybean; [7]) | Soybean plant response rating (soybean; [8]) | Velvetleaf plant response rating (velvetleaf; [2]) | Velvetleaf plant response rating (0 to 10 scale) (velvetleaf; [3]) | Velvetleaf plant response rating (velvetleaf; [4]) | Velvetleaf plant response rating (velvetleaf; [5]) | Velvetleaf plant response rating (velvetleaf; [6]) | Plant response rating, Velvetleaf (velvetleaf; [7]) | Velvetleaf plant response rating (velvetleaf; [8]) | Wheat plant response rating (wheat; [2]) | Wheat plant response rating (0 to 10 scale) (wheat; [3]) | Wheat plant response rating (wheat; [4]) | Wheat plant response rating (wheat; [5]) | Wheat plant response rating (wheat; [6]) | Plant response rating, Wheat (wheat; [7]) | Wheat plant response rating (wheat; [8]) | Wild oats plant response rating (wild oat; [2]) | Wild oats plant response rating (0 to 10 scale) (wild oat; [3]) | Wild oats plant response rating (wild oat; [4]) | Wild oats plant response rating (wild oat; [5]) | Wild oats plant response rating (wild oat; [6]) | Plant response rating, Wild oats (wild oat; [7]) | Wild oats plant response rating (wild oat; [8]) | Nutsedge plant response rating (purple nutsedge; [1]) | Nutsedge plant response rating (purple nutsedge; [2]) | Nutsedge plant response rating (0 to 10 scale) (purple nutsedge; [3]) | Nutsedge plant response rating (purple nutsedge; [4]) | Nutsedge plant response rating (purple nutsedge; [5]) | Nutsedge plant response rating (purple nutsedge; [6]) | Plant response rating, Nutsedge (purple nutsedge; [7]) | Nutsedge plant response rating (purple nutsedge; [8]) | Rice plant response rating (rice; [9]) | Rice plant response rating (rice; [10]) | Plant response rating, Rice (rice; [11]) | Rice plant response rating (rice; [12]) | S. Flatsedge plant response rating (smallflower flatsedge; [9]) | S. Flatsedge plant response rating (smallflower flatsedge; [10]) | Plant response rating, S. Flatsedge (smallflower flatsedge; [11]) | S. Flatsedge plant response rating (smallflower flatsedge; [12]) | Barnyardgrass plant response rating (bamyardgrass; [9]) | Barnyardgrass plant response rating (bamyardgrass; [10]) | Plant response rating, Barnyardgrass (bamyardgrass; [11]) | Barnyardgrass plant response rating (bamyardgrass; Rate 500 g/ha, listed under Postemergence (flood test species), scale 0 to 10, 0 no effect, 10 complete control)
